Laboratory results reported in patent publication US20260217708A1, “FUSED BENZAZEPINE DERIVATIVES FOR USE IN THE TREATMENT OF CANCER AND EPILEPSY” (UCB BIOPHARMA SRL, priority 2023, published 2026).

Experiments:
system Xc^− [1] = molecular target: T1, system Xc^− (Homo sapiens, UniProt Q9UPY5); assay: Cystine-induced glutamate release assay; type: cell-based; design: endogenous in cells; host or cells: H4 cells; settings: H4 cells, sodium-free HEPES buffer, 50 μM L-Cystine, 2 hours, Amplex Red glutamate readout; read-out: pIC50 Cystine-induced glutamate release assay (converted)
T1 sequence (Q9UPY5 1-501): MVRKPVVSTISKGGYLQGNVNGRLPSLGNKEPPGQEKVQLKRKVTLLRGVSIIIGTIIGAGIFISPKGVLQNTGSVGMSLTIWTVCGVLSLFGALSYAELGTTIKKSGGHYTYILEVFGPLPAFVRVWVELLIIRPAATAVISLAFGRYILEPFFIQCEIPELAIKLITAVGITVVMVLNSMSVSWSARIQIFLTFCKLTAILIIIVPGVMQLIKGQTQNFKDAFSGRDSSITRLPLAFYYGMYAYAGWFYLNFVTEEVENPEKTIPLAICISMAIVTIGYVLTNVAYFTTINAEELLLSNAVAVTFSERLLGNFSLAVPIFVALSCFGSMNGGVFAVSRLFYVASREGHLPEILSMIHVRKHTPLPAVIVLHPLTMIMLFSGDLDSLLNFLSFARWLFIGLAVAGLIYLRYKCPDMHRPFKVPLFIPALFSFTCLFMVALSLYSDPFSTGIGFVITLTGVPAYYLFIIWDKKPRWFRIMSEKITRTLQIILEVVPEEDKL
T1 sequence (P08195 1-529 partner): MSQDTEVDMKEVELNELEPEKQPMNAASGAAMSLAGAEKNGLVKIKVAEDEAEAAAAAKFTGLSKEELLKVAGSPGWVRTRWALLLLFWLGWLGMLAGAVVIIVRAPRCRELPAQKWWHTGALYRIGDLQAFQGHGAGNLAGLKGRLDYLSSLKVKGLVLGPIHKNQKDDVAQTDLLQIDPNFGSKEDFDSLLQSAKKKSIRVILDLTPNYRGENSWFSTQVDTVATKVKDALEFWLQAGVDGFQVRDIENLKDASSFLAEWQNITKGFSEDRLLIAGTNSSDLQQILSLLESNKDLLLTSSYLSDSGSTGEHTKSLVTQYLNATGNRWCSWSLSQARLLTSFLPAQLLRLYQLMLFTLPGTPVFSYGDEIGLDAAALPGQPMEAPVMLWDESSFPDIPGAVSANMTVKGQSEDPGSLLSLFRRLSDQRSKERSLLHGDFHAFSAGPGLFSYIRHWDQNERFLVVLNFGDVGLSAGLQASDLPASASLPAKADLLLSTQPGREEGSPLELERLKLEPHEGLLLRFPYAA
Source text: (§1) The effect of compounds of Formula (I) on the system Xc^− functionality was examined in two independent cell assays: (i) measurement of cystine-induced glutamate release; and (ii) measurement of [^14C]L-Cystine uptake.
(§2) As described above, System Xc^−, also known as the cystine/glutamate antiporter, is an amino acid transporter that mediates the extrusion of intracellular L-glutamate outside the cell and the uptake of extracellular L-cystine into the cell.
(§3) By measuring respectively, the concentration of glutamate released outside the cell and the L-cystine uptaken in the cell, with increasing concentrations of compounds of formula (I) according to the present invention, the efficacy of said compounds to inhibit the System Xc^− function can be evaluated.
(§4) The efficacy of the compounds to inhibit system Xc^− is represented by measuring the IC50 which corresponds to the concentration of compound necessary to inhibit 50% of the signals from the two control groups; DMSO 1% and Erastin 50 μM in the respective assays. pIC50 values correspond to −log of the IC50 in Molar.
Measurement of cystine-induced glutamate release indicates levels of glutamate (outside of the cell) that are dependent on system Xc^− antiporter function. Upon the addition of L-Cystine to H4 cells, intracellular glutamate is counter-transported and exported in the supernatant.
In this assay, the medium is devoid of sodium to prevent the transport of glutamate by sodium-dependent excitatory amino acid transporters (EAATs). H4 cells were plated on 384-well culture plate at 1×10^4 cells/well in Dulbecco's Modified Eagle Medium (DMEM) with L-glutamine, penicillin/streptomycin and 10% fetal bovine serum (all from ThermoFisher Scientific) and incubated in a humidified CO2 incubator at 37° C. After 2 days, cells were washed 4 times with prewarmed sodium-free HEPES buffer (contents in mM: HEPES 10, KCl 5.4, CaCl2 2.5, MgCl2 1, KH2PO4 0.4, D-Glucose 5, Choline chloride 140), pH 7.4. Glutamate release was induced by addition of 50 μM of L-Cystine (Sigma-Aldrich), together with a test compound of Formula (I) at 1% final DMSO concentration. After 2 hours of incubation in the culture incubator, supernatants were transferred to a low-binding polypropylene 384-well plate to determine L-glutamate concentration using Amplex™ Red Glutamic Acid Assay Kit (ThermoFisher Scientific). Briefly, 10 μL of Amplex™ Red working solution was added to 10 μL of the supernatant, then the mixture was incubated for 30 min at 37° C. Fluorescence intensity was measured by EnVision microplate reader (PerkinElmer).

system Xc^− [2] = molecular target: T1, system Xc^−; assay: [^14C]L-Cystine uptake assay; type: cell-based; design: endogenous in cells; host or cells: H4 cells; settings: H4 cells, sodium-free HEPES buffer, 0.5 μM L-[14C]Cystine and 4.5 μM L-Cystine, 1 hour at 37° C.; read-out: pIC50 [^14C] L-Cystine uptake assay (converted)
Source text: as §1, §2, §3, §4
In this assay, the medium is devoid of sodium to prevent the transport of glutamate by sodium-dependent excitatory amino acid transporters (EAATs). H4 cells were plated on a 96-well CytoStar-T scintillating microplate (PerkinElmer) at 5×10^4 cells/well in the medium described above. After 1 day, cells were washed one time with the sodium-free HEPES buffer and preincubated with test compounds of Formula (I) (1% final DMSO) for 15 min. Uptake was initiated by adding 0.5 μM L-[1,2, 1′,2′-^14C]Cystine (0.02 mCi/mL, PerkinElmer, Waltham, US) and 4.5 μM L-Cystine (Sigma-Aldrich). After 1 hour at 37° C., plates were counted in a MicroBeta^2 microplate counter (PerkinElmer).

Row | SMILES | IC50 (system Xc^− [1]) [nM] | IC50 (system Xc^− [2]) [nM]
1 | CC1C(=O)N(CC(=O)Nc2ccc(C(F)F)cc2)c2cc(C#N)cc(F)c2-c2cccnc21 (single isomer, unassigned) [#309, 2-[9-cyano-11-fluoro-5-methyl-6-oxo-5H-pyrido[2,3-d][1]benzazepin-7-yl]-N-[4-(difluoromethyl)phenyl]acetamide] | 15.8 to 39.8 | 15.8 to 39.8
2 | CC1C(=O)N(CC(=O)Nc2ccc(C(F)F)cc2)c2cc(N3CC(F)(F)C3)nc(F)c2-c2cccnc21 (single isomer, unassigned) [#280, 2-[5-(3,3-difluoroazetidin-1-yl)-3-fluoro-10-methyl-9-oxo-4,8,12-triazatricyclo[9.4.0.0^2,7]pentadeca-1(11),2(7),3,5,12,14-hexaen-8-yl]-N-[4-(difluoromethyl)phenyl]acetamide] | < 15.8 | < 15.8
3 | Cc1cc2c(c(F)n1)-c1nccnc1C(C)C(=O)N2CC(=O)Nc1ccc(Cl)c(F)c1 (single isomer, unassigned) [#408, N-(4-chloro-3-fluoro-phenyl)-2-[15-fluoro-8,13-dimethyl-9-oxo-3,6,10,14-tetrazatricyclo[9.4.0.0^2,7]pentadeca-1(15),2,4,6,11,13-hexaen-10-yl]acetamide] | 39.8 to 100 | 39.8 to 100
4 | Cc1cc2c(cc1C)N(CC(=O)Nc1ccc(Cl)c(F)c1)C(=O)Cc1ccncc1-2 [#2, N-(4-chloro-3-fluoro-phenyl)-2-(9,10-dimethyl-6-oxo-5H-pyrido[4,3-d][1]benzazepin-7-yl)acetamide] | 100 to 501 | 15.8 to 39.8
5 | Cc1cc2c(c(Cl)n1)-c1cccnc1C(C)C(=O)N2CC(=O)Nc1ccc(C(F)(F)F)nc1 (single isomer, unassigned) [#228, Enantiomer (10S) or (10R) of 2-[3-chloro-5,10-dimethyl-9-oxo-4,8,12-triazatricyclo[9.4.0.0^2,7]pentadeca-1(15),2,4,6,11,13-hexaen-8-yl]-N-[6-(trifluoromethyl)-3-pyridyl]acetamide] | < 15.8 | < 15.8
6 | Cc1cc2c(c(F)n1)-c1cccnc1C(C)C(=O)N2CC(=O)Nc1ccc(OC(F)F)c(F)c1 (stereo not drawn) [#136, N-[4-(difluoromethoxy)-3-fluoro-phenyl]-2-(3-fluoro-5,10-dimethyl-9-oxo-4,8,12-triazatricyclo[9.4.0.0^2,7]pentadeca-1(11),2(7),3,5,12,14-hexaen-8-yl)acetamide] | 100 to 501 | 15.8 to 39.8
7 | CC1C(=O)N(CC(=O)Nc2ccc(Cl)c(F)c2)c2cc(Cl)cc(F)c2-c2cncnc21 (single isomer, unassigned) [#314, 2-[9-chloro-11-fluoro-5-methyl-6-oxo-5H-pyrimido[4,5-d][1]benzazepin-7-yl]-N-(4-chloro-3-fluoro-phenyl)acetamide] | 15.8 to 39.8 | < 15.8
8 | Cc1cc2c(c(F)n1)-c1cnccc1C(C)C(=O)N2CC(=O)Nc1ccc(C(F)F)cc1 (single isomer, unassigned) [#259, N-[4-(difluoromethyl)phenyl]-2-[3-fluoro-5,10-dimethyl-9-oxo-4,8,14-triazatricyclo[9.4.0.0^2,7]pentadeca-1(15),2,4,6,11,13-hexaen-8-yl]acetamide] | < 15.8 | < 15.8
9 | O=C(CN1C(=O)C(O)c2ncc(F)cc2-c2c(F)cc(F)cc21)Nc1ccc(C(F)F)cc1 (single isomer, unassigned) [#318, N-[4-(difluoromethyl)phenyl]-2-[2,9,11-trifluoro-5-hydroxy-6-oxo-5H-pyrido[2,3-d][1]benzazepin-7-yl]acetamide] | < 15.8 | 
10 | COc1ccc2c(c1)N(CC(=O)Nc1ccc(C(F)F)cc1)C(=O)C(C)c1ncccc1-2 (stereo not drawn) [#305, N-[4-(difluoromethyl)phenyl]-2-(9-methoxy-5-methyl-6-oxo-5H-pyrido[2,3-d][1]benzazepin-7-yl)acetamide] | 39.8 to 100 | 
11 | CC1C(=O)N(CC(=O)Nc2ccc(Cl)c(F)c2)c2cc(C3(F)CN(C)C3)nc(Cl)c2-c2cccnc21 (stereo not drawn) [#422, 2-[3-chloro-5-(3-fluoro-1-methyl-azetidin-3-yl)-10-methyl-9-oxo-4,8,12-triazatricyclo[9.4.0.0^2,7]pentadeca-1(11),2,4,6,12,14-hexaen-8-yl]-N-(4-chloro-3-fluoro-phenyl)acetamide] | 15.8 to 39.8 | 
12 | Cc1cc2c(c(F)n1)-c1cccnc1[C@@H](C)C(=O)N2CC(=O)Nc1cc(F)c(Cl)cc1F [#245, N-(4-chloro-2,5-difluoro-phenyl)-2-[(10R)-3-fluoro-5,10-dimethyl-9-oxo-4,8,12-triazatricyclo[9.4.0.0^2,7]pentadeca-1(15),2,4,6,11,13-hexaen-8-yl]acetamide] | 15.8 to 39.8 | 
13 | CC1C(=O)N(CC(=O)Nc2ccc(C(F)F)cc2)c2cc(N3CC(F)(F)C3)nc(Cl)c2-c2cccnc21 (stereo not drawn) [#292, 2-[3-chloro-5-(3,3-difluoroazetidin-1-yl)-10-methyl-9-oxo-4,8,12-triazatricyclo[9.4.0.0^2,7]pentadeca-1(15),2,4,6,11,13-hexaen-8-yl]-N-[4-(difluoromethyl)phenyl]acetamide] | < 15.8 | 
14 | CC1C(=O)N(CC(=O)Nc2ccc(C(F)F)cc2)c2cc(C(F)F)nc(Cl)c2-c2cccnc21 (stereo not drawn) [#338, 2-[3-chloro-5-(difluoromethyl)-10-methyl-9-oxo-4,8,12-triazatricyclo[9.4.0.0^2,7]pentadeca-1(11),2(7),3,5,12,14-hexaen-8-yl]-N-[4-(difluoromethyl)phenyl]acetamide] | < 15.8 | 
15 | O=C(CN1C(=O)Cc2cc(Cl)ccc2-c2c1cc(C1CC1)nc2Cl)Nc1ccc(C(F)F)cc1 [#340, 2-(1,9-dichloro-3-cyclopropyl-6-oxo-7H-pyrido[4,3-d][3]benzazepin-5-yl)-N-[4-(difluoromethyl)phenyl]acetamide] | 39.8 to 100 | 
16 | Cc1cc2c(c(C)n1)-c1ccc(C)nc1CC(=O)N2CC(=O)Nc1ccc(C(F)(F)F)cc1 [#70, N-[4-(trifluoromethyl)phenyl]-2-(3,5,13-trimethyl-9-oxo-4,8,12-triazatricyclo[9.4.0.0^2,7]pentadeca-1(11),2(7),3,5,12,14-hexaen-8-yl)acetamide] | 39.8 to 100 | 
